Measurements reported in article PMC2939063, “In Vitro and In Vivo Studies of the Trypanocidal Properties of WRR-483 against Trypanosoma cruzi” (PLoS Neglected Tropical Diseases, 2010).

Columns and labels:
Format in all cases: biochemical
tbcatB = target: T1, tbcatB (Trypanosoma brucei, UniProt Q6R7Z5); assay: tbcatB enzyme assay
T1 construct: made in house
T1 sequence (Q6R7Z5 23-340): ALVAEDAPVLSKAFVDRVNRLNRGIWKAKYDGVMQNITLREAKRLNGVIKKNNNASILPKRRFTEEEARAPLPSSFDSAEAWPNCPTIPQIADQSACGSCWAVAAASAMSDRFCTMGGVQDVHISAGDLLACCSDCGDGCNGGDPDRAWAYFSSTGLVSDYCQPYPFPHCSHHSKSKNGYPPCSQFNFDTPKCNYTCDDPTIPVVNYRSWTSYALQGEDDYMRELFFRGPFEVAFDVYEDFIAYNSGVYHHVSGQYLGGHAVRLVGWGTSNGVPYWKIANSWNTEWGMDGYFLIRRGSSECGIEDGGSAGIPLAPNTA
Experimental: Cruzain[27],[28], rhodesain [29], and tbcatB [30] were recombinantly expressed as described previously. TbcatB assays were performed as described previously.[31] Cruzain (2 nM) or rhodesain (3 nM) was incubated with 0.5 to 10 µM inhibitor concentration in 100 mM sodium acetate at pH 5.5, containing 5 mM DTT (buffer A) for 5 min at room temperature. Then buffer A containing Z-Phe-Arg-AMC (Bachem, K M = 1 µM) was added to enzyme inhibitor to give 20 µM substrate concentration in 200 µL, and the increase in fluorescence (excitation at 355 nm and emission at 460 nm) was followed with an automated microtiter plate spectrofluorometer (Molecular Devices, Flex station). Inhibitor stock solutions were prepared at 20 mM in DMSO, and serial dilutions were made in DMSO (0.7% DMSO in assay). Controls were performed using enzyme alone and enzyme with DMSO. IC50 values were determined graphically using inhibitor concentrations in the linear portion of a plot of inhibition versus log[I] (seven concentrations tested with at least two in the linear range).
(§1) Inhibitor dilutions which produce simple exponential progress curves over a wide range of k obs, were used to determine kinetic parameters. The value of k obs, the rate constant for loss of enzyme activity, was determined from an equation for pseudo first order dynamics using Prism 4.0 (GraphPad). When k obs varied linearly with inhibitor concentration, k ass was determined by linear regression analysis. If the variation was hyperbolic, indicating saturation inhibition kinetics, k inact and K i were determined from an equation describing a two-step irreversible inhibitor mechanism [k obs = k inact [I]o/([I]o+Ki* (1+[S]o/K M))] and non-linear regression analysis Prism 4.0.[32] All values were corrected for substrate concentration.

Cruzain = target: T2, Cruzain (Trypanosoma cruzi, UniProt P25779); assay: biochemical
T2 construct: made in house
Experimental: For pH dependence studies, cruzain was tested at 4 nM in 5 µM Z-Phe-Arg-AMC in 0.15 M citrate phosphate buffer at pH 5.5 and pH 8.0 with 5 mM DTT, and 0.01% Triton-X 100. Enzyme was added to wells of a 96-well microtiter plate containing substrate and inhibitor diluted in DMSO (0.5% final concentration), or DMSO control. Final inhibitor concentration ranged from 0.01 µM to 10 µM. Experiments were done in triplicate. Assays were run at 25°C in an automated microtiter plate spectrofluorometer, with robotic delivery of enzyme and readings every 1.52 seconds throughout the assay, before and after enzyme addition.
as §1

Cathepsin C = target: T3, Cathepsin C (Homo sapiens, UniProt P53634); assay: Protease inhibition profiling (Reaction Biology Corp): Cathepsin C
T3 construct: Reaction Biology Corp (screening service)

calpain-1 = target: T4, calpain-1 (Homo sapiens, UniProt P07384); assay: Protease inhibition profiling (Reaction Biology Corp): calpain-1; details: panel of 70 proteases
T4 construct: Reaction Biology Corp (screening service)
T4 sequence (P07384 1-714): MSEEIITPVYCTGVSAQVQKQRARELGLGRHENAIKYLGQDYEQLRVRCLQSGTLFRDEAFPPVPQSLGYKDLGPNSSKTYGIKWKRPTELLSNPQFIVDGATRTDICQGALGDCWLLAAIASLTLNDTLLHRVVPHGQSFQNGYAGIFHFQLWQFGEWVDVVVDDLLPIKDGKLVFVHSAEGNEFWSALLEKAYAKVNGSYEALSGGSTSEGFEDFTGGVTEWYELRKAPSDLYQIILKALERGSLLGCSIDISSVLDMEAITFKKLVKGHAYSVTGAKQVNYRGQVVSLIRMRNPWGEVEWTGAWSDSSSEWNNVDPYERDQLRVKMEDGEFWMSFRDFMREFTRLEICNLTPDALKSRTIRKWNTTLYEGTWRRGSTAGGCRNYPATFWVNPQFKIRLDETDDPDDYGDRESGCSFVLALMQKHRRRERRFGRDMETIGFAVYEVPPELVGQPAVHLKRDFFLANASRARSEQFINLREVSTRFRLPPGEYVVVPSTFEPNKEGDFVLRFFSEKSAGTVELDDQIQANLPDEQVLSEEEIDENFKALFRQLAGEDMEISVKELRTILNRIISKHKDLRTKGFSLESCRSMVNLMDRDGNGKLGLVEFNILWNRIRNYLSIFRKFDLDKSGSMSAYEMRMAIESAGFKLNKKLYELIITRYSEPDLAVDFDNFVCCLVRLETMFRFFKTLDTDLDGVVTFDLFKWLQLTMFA
T4 sequence (P04632 1-268 partner): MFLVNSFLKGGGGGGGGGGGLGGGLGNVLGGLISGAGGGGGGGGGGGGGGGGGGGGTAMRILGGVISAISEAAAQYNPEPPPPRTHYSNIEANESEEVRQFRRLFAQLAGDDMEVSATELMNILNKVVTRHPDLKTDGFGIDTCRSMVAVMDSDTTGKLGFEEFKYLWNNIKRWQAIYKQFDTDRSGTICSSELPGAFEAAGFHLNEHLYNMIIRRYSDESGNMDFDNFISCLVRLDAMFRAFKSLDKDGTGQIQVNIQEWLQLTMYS

[1] = pH 5.5, citrate phosphate buffer
[2] = pH 8.0, citrate phosphate buffer

T2 sequence (P25779 123-337 limits assumed): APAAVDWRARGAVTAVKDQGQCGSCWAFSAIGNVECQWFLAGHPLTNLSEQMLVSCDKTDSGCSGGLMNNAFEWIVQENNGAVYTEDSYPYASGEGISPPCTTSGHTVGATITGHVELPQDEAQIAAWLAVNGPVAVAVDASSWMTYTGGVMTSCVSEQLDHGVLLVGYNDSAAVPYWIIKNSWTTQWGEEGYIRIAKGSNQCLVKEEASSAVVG
T3 sequence (P53634 25-463, species assumed): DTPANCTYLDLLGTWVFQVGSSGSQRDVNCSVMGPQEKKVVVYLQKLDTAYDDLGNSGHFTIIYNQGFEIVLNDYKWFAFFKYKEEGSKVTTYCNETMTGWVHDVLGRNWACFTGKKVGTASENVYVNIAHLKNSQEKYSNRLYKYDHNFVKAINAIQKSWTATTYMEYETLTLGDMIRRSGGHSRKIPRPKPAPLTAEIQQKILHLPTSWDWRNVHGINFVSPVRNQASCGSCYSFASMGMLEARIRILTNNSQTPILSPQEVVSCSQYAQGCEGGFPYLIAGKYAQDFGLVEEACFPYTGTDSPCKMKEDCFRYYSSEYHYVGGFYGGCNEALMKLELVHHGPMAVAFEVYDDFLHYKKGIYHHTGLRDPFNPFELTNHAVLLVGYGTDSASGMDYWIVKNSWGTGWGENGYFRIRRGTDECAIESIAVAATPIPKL

Structure (SMILES): CN1CCN(C(=O)N[C@@H](CCCNC(=N)N)C(=O)N[C@H](/C=C/S(=O)(=O)c2ccccc2)CCc2ccccc2)CC1 [WRR-483]
- inhibition of tbcatB (in words) (tbcatB): weak inhibitors
- inhibition at 1 µM (tbcatB; read-out: tbcatB % inhibition at 1 µM, 1 µM inhibitor): 26%
- improvement of cruzain IC50 at pH 8.0 than at pH 5.5 (Cruzain; citrate phosphate buffer): ~10 fold
- increase in the second-order rate of inactivation of cruzain, pH 8.0 vs pH 5.5 (Cruzain; citrate phosphate buffer): 4 fold
- IC50 (Cruzain; [1]): 70 ± 30 nM
- k inact/K i, cruzain (Cruzain; [1]): 14,000±240 s^-1 M^-1
- IC50 (Cruzain; [2]): 8 ± 2 nM
- k inact/K i, cruzain (Cruzain; [2]): 62,000±350 s^-1 M^-1
- IC50 (Cathepsin C): 7 ± 0.9 nM
- inhibition of calpain-1 (calpain-1): no inhibition
